Non-standard residues stand in square brackets, D forms with d. Residues, ends and D or L forms follow the SMILES beside them. *: point of attachment. Dolaproine = CO[C@@H]([C@@H]1CCCN1)[C@@H](C)C(=O)O; Dil = CC[C@H](C)[C@H](NC)[C@@H](CC(=O)O)OC; X1 = C[C@@H](N*)[C@@H](O)c1ccccc1; NMeV = CN[C@H](C(=O)O)C(C)C
What was measured:
Assay in all cases: In vitro cytotoxicity evaluation (cell proliferation inhibition, SRB dye)
Type in all cases: cell-based, human
[1] = tested on: JIMT-1 (HER2 positive); settings: JIMT-1 cells, SRB viable cell count; no 144 h footnote (168-hour treatment group)
Protocol: (§1) The cell proliferation inhibitory activity of the drug and ADCs listed in Table 2 below on cancer cell lines was measured. As the cancer cell lines, commercially available human breast cancer cell lines MCF-7 (HER2 negative to normal), SK-BR3 (HER2 positive), and JIMT-1 (HER2 positive) were used. MMAE was used as the drug, and the ADCs in Table 1 were used as the ADC. Each cancer cell line was seeded in a 96-well plate at 2,500 to 5,000 cells per well for 144-hour treatment group and 1,500 to 3,000 cells per well for 168-hour treatment group, cultured for 24 hours, and then treated with the ADCs and drug at concentrations of 0.00015 to 10.0 nM (4-fold serial dilution) or 0.0015 to 10 nM (3-fold serial dilution). After 144/168 hours, the number of viable cells was quantified using SRB (sulforhodamine B) dye.

[2] = tested on: MCF-7 (HER2 negative to normal); settings: MCF7 cells, SRB viable cell count; no 144 h footnote (168-hour treatment group)
Protocol: as §1

[3] = tested on: SK-BR3 (HER2 positive); settings: SK-BR3 cells, SRB viable cell count; no 144 h footnote (168-hour treatment group)
Protocol: as §1

CC[C@H](C)[C@@H]([C@@H](CC(=O)N1CCC[C@H]1[C@H](OC)[C@@H](C)C(=O)N[C@H](C)[C@@H](O)c1ccccc1)OC)N(C)C(=O)[C@@H](NC(=O)[C@@H](NC)C(C)C)C(C)C [MMAE, monomethyl auristatin E] (H-[NMeV]V[Dil][Dolaproine]-X1)
CC50 [1]: 0.09 nM | CC50 [2]: 0.31 nM | CC50 [3]: 0.12 nM

From patent US20220226496A1, “LIGAND-DRUG CONJUGATE INCLUDING LINKER HAVING TRIS STRUCTURE” (LEGOCHEM BIOSCIENCES, INC., priority 2019, published 2022)
